Assay results from patent US20180296588A1, “COMBINATION THERAPY FOR TREATING VIRAL INFECTIONS” (ContraVir Pharmaceuticals, Inc., priority 2017, published 2018).
Entries after “also recorded” stand apart in the source; their conditions may differ. Read-outs that look alike come from different tables or passages of the source.

What was measured:
[1] = tested on: HBV DNA replication in DE19 cells; test: Inhibition of intracellular HBV DNA replication in HepDE19 cells (PCR); type: cell-based; details: Hepatitis B virus, HepDE19, read-out: IC50 for Compound I, DE19 cells
Description: (§1) The antiviral activity of Compound I and Compound II towards HBV was tested in various cell lines (HepAD38, HepDE19 and HepDES19). The HepAD38 cell line is derived from the HepG2 cell line and engineered to stably maintain HBV (see Ladner et al., Antimicrobial Agents and Chemotherapy, 1997, 41, 1715-1720, which is incorporated herein by reference in its entirety). DE19 and DES19 cell lines are human hepatoma derived cell lines (see Guo et al. J. Virol 2007, 81, 12472-84, which is incorporated herein by reference in its entirety). Active HBV replication in the cells was suppressed by inclusion of tetracycline in the cell culture medium, which binds to a tetracycline-sensitive promoter, and induced by removal of tetracycline. HBV replication was quantified by measuring the amount of HBV DNA in the cells.
(§2) Compound I and Compound II were applied to induced cells (i.e., cells without tetracycline), either alone or in combination at various concentrations. Next, intracellular DNA was isolated and HBV DNA was measured by polymerase chain reaction (PCR). The percent inhibition of HBV DNA was examined over the concentration ranges of 0-320 nM for Compound I and 0-640 nM for Compound II. Concentration versus effect curves were constructed for both drugs (FIGS. 1A and 1B, 2A and 2B, and 3A and 3B). […] See FIGS. 1B, 2B, and 3B (curves where [Compound II]=0).
(§3) The level of reduction in intracellular HBV DNA by the various combinations of Compound I and II as plotted in FIGS. 1 A and 1B, 2A and 2B, and 3A and 3B, was analyzed using the Shipman-Prichard synergy scoring program (MacSynergy™ II program, Prichard et al. Antiviral Research 1990), wherein the experimentally observed effect of each combination is compared to the theoretical, additive inhibition. The comparison is used to determine combination scores (effect volumes) that represent either synergistic (positive scores) or antagonistic (negative scores) effects. All the positive and negative scores are summed to calculate overall synergy and antagonism scores that reflect the entire concentration spectrum of the two drugs. The magnitude of the scores reflect the degree of synergism/antagonism and the likelihood of the synergistic/antagonistic activities being important in vivo, according to the following four categories: (1) Synergy/Antagonism Volume=0-25 (log volume <2): insignificant synergy/antagonism (i.e., only additive effects); (2) Synergy/Antagonism Volume=25-50 (log volume 2-5): minor but significant amount of synergy/antagonism; (3) Synergy/Antagonism Volume=50-100 (log volume 5-9): moderate synergy/antagonism that may be important in vivo; (4) Synergy/Antagonism Volume >100 (log volume >9): stronger synergy/antagonism that is probably important in vivo. IC50 values for Compound I in combination with different concentrations of Compound II, and Compound II in combination with different concentrations of Compound I, are presented in Tables 6 and 7, respectively.

HBV = test: Anti-HBV effects in the HBV transgenic mouse model; type: in vivo, HBV transgenic mice
Description: (§4) Compound I and Compound II were administered by once-daily oral gavage for 16 days to HBV transgenic mice which replicated HBV from a 1.3× overlength HBV genome integrated into the mouse genome. Expression occurred mostly in hepatocytes.
Treatment Groups (n=8/Group):
After 16 days of dosing, livers and serum were harvested and the following parameters were measured: a) HBV DNA by quantitative PCR (liver and serum) b) HBsAg by ELISA (liver and serum) c) HBeAg by ELISA (serum)

[2] = tested on: HBV DNA replication in DES19 cells; test: Inhibition of intracellular HBV DNA replication in HepDES19 cells (PCR); type: cell-based; details: Hepatitis B virus, HepDES19, read-out: IC50 for Compound I, DES19 cells
Description: as §1, §2, §3

[3] = tested on: HBV DNA replication in AD38, DES19 and DE19 cells; test: In vitro combination study, statements covering AD38, DES19 and DE19 cells together; type: cell-based, hepatitis B virus; details: Compound I 5-320 nM and/or Compound II 10-640 nM; FIGS. 1-3
Description: The antiviral activity of Compound I and Compound II towards HBV was tested in various cell lines (HepAD38, HepDE19 and HepDES19). […] Active HBV replication in the cells was suppressed by inclusion of tetracycline in the cell culture medium, which binds to a tetracycline-sensitive promoter, and induced by removal of tetracycline. HBV replication was quantified by measuring the amount of HBV DNA in the cells.
The comparison is used to determine combination scores (effect volumes) that represent either synergistic (positive scores) or antagonistic (negative scores) effects. All the positive and negative scores are summed to calculate overall synergy and antagonism scores that reflect the entire concentration spectrum of the two drugs. […]

[4] = Compound I concentration in serum by liquid chromatography-mass spectrometry; type: in vivo, HBV transgenic mice; details: 3-hr post-dose on Day 16 of dosing; FIG. 11
Description: as §4
Compound I Concentrations were Measured by Liquid Chromatography-Mass Spectrometry (Serum)

[5] = tested on: HBV DNA replication in HepAD38 cells; test: Inhibition of intracellular HBV DNA replication in HepAD38 cells (PCR); type: cell-based; details: Hepatitis B virus, HePAD38, read-out: IC50 for Compound I, AD38 cells
Description: as §1, §2, §3

SMILES: CC[C@@H]1NC(=O)C([C@H](O)[C@H](C)CCCCCCNC(C)=O)N(C)C(=O)[C@@H](C(C)C)N(C)C(=O)[C@H](CC(C)C)N(C)C(=O)[C@H](CC(C)C)N(C)C(=O)[C@H](C)NC(=O)[C@H](C)NC(=O)[C@@H](CC(C)C)N(C)C(=O)[C@H](C(C)C)NC(=O)[C@H](CC(C)C)N(C)C(=O)[C@H](C)N(C)C1=O (stereo partly shown) [Compound I]
- IC50 ([1]; Compound II 0 nM): 32.9 nM
- IC50 ([1]; Compound II 10 nM): 29.5 nM
- IC50 ([1]; Compound II 20 nM): 26 nM
- IC50 ([1]; Compound II 40 nM): 27.3 nM
- IC50 ([1]; Compound II 80 nM): 27.8 nM
- IC50 ([1]; Compound II 160 nM): 33.6 nM
- IC50 ([1]; Compound II 320 nM): 37.5 nM
- IC50 ([1]; Compound II 640 nM): 23.3 nM
- liver HBsAg (HBV; alone or in combination, oral, 16 days, FIG. 8): did not affect
- serum HBV DNA (HBV; alone or in combination, oral, 16 days, FIG. 9): did not affect
- serum HBeAg (HBV; alone or in combination, oral, 16 days, FIG. 10): did not affect
- serum HBsAg (HBV; high-dose Compound I (50 mg/kg/day), oral, 16 days, FIG. 7): decreased serum HBsAg; also recorded: able to lower serum HBsAg levels
- liver HBV DNA (copies per mg liver) (HBV; once-daily oral gavage 16 days, Compound I 10 or 50, Compound II 5 or 10 mg/kg/day, combination 10+5, FIG. 6): decreased liver HBV DNA; also recorded: highly efficacious
- IC50 ([2]; Compound II 0 nM): 33.4 nM
- IC50 ([2]; Compound II 10 nM): 29.1 nM
- IC50 ([2]; Compound II 20 nM): 27.2 nM
- IC50 ([2]; Compound II 40 nM): 26.4 nM
- IC50 ([2]; Compound II 80 nM): 27.8 nM
- IC50 ([2]; Compound II 160 nM): 34.7 nM
- IC50 ([2]; Compound II 320 nM): 32.4 nM
- IC50 ([2]; Compound II 640 nM): 22.9 nM
- intracellular HBV DNA compared to induced cells in the absence of the drug [3]: reduced intracellular HBV DNA in a concentration-dependent manner
- serum Compound I concentration [4]: correlated with the effects of Compound I on HBV DNA and HBsAg
- IC50 ([5]; Compound II 0 nM): 32.1 nM
- IC50 ([5]; Compound II 10 nM): 31 nM
- IC50 ([5]; Compound II 20 nM): 26.5 nM
- IC50 ([5]; Compound II 40 nM): 29.9 nM
- IC50 ([5]; Compound II 80 nM): 29.5 nM
- IC50 ([5]; Compound II 160 nM): 34.5 nM
- IC50 ([5]; Compound II 320 nM): 38.2 nM
- IC50 ([5]; Compound II 640 nM): 21 nM
